This passage reports Zscore_1, Zscore_2 and Zscore_AVG results from patent US11865176B2, “Compositions and methods of modulating anti-tumor immunity” (Dana-Farber Cancer Institute, Inc., priority 2016, dated 2024).

This assay deals with PD-1-overexpressing Jurkat cells. Briefly: Small molecule screen: IL2 secretion (AlphaLISA) from stimulated PD-1-overexpressing Jurkat cells. It is filed as cell-based, human. In a few lines: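 Cells (100,000/well) with compound at 3.3 μM final, stimulated by α-CD3/α-CD28/α-PD-1 Dynabeads at an 8:1 bead:cell ratio. IL2 in supernatants measured by AlphaLISA. Hits scored ≥3 SD from the mean of DMSO-treated, α-PD-1-bead-stimulated controls.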
For orientation: Alpha assays give light when donor and acceptor beads are brought close together.

Where [1] appears, read: IL2 level, replicate 1, 3.3 μM compound, α-CD3/α-CD28/α-PD-1 beads.
[2] abbreviates: IL2 level, replicate 2, 3.3 μM compound, α-CD3/α-CD28/α-PD-1 beads.
Setting [3] is: average of replicate Z scores, 3.3 μM compound.

Values joined by “and” are separate entries in the source; they are usually repeats but may differ in a detail not shown here. Equal values may be shown once. Read-outs that look alike come from different tables or passages of the source.

On to `O=C(Nc1ccc(-c2cn[nH]c2)cc1)C1COc2ccccc2O1` (stereo not drawn) [Rho Kinase Inhibitor V], for which the Zscore_1 under setting [1] is on record as −0.6152. In addition, the Zscore_2 under setting [2] is listed as −2.172. Moreover, under setting [3], the Zscore_AVG is recorded as −1.394.
As to `Cn1cc(C2=C(c3cn(CCCSC(=N)N)c4ccccc34)C(=O)NC2=O)c2ccccc21` [Ro-31-8220], the Zscore_1 under setting [1] is listed as −5.987. In addition, under setting [2], the Zscore_2 is −6.268. For the same molecule, the Zscore_AVG under setting [3] is listed as −6.128.
In the same order, the values of `CC[C@H](CO)Nc1nc(NCc2ccccc2)c2ncn(C(C)C)c2n1` [Roscovitine] are −1.54, −2.209 and −1.875.
For `Oc1ccc(-c2nc(-c3ccc(F)cc3)c(-c3ccncc3)[nH]2)cc1` [SB 202190], in that order: −1.512, −3.097 and −2.304.
For `CCc1nc(-c2ccc(OC)cc2)[nH]c1-c1ccncc1` [SB 202474, Neg Con for p38 MAPK Inhibition Studies], in that order: −2.475, −0.6025 and −1.539.
With `CS(=O)(=O)c1ccc(-c2nc(-c3ccc(F)cc3)c(-c3ccncc3)[nH]2)cc1` [SB 203580, Sulfone], the Zscore_1 is on record as 2.85, the Zscore_2 is −0.6448 and the Zscore_AVG worked out at 1.103.
Turning to `C[S+]([O-])c1ccc(-c2nc(-c3ccc(F)cc3)c(-c3ccncc3)[nH]2)cc1` (stereo not drawn) [SB 203580], the Zscore_1 under setting [1] is −0.8209. Also, under setting [2], the Zscore_2 was −0.02124. For the same molecule, under setting [3], the Zscore_AVG is reported as −0.4211.
For `O=C1NC(=O)c2c1c1c3ccccc3n3c1c1c2c2ccccc2n1C1CCC3O1` [SB 218078], in that order: −0.8723, −1.561 and −1.217.
`Nc1nccc(-c2c(-c3ccc(F)cc3)ncn2C2CCNCC2)n1` [SB 220025] showed a Zscore_1 under setting [1] of 14.69. Also, under setting [2], the Zscore_2 is recorded as 27.59. Also, the Zscore_AVG under setting [3] was 21.14.
For `COc1nccc(-c2c(-c3ccc(F)cc3)ncn2C2CCC(O)CC2)n1` (stereo not drawn) [SB 239063], in that order: −0.08397, 1.041 and 0.4785.
As to `Cc1nc(-c2ccccc2)c(-c2ccncc2)o1` [SC-68376], the Zscore_1 under setting [1] is reported as −1.404. The Zscore_2 under setting [2] is listed as −0.2868. Besides, the Zscore_AVG under setting [3] was −0.8452.
For `Fc1ccc(-c2nc3n(c2-c2ccncc2)CCS3)cc1` [SKF-86002], in that order: −0.4953, −2.331 and −1.413.
Regarding `O=C(O)c1ccc2c3c1cccc3c(=O)n1c3ccccc3nc21` [STO-609], the Zscore_1 under setting [1] is recorded as −1.71. Also, the Zscore_2 under setting [2] is given as −1.025. Moreover, under setting [3], the Zscore_AVG is reported as −1.368.
In the same order, the values of `CN(C)S(=O)(=O)c1ccc2c(c1)/C(=C/c1cc3c([nH]1)CCCC3)C(=O)N2` [SU6656] are 1.733, 1.333 and 1.533.
In the same order, the values of `COc1ccc2c(c1)/C(=C/c1cnc[nH]1)C(=O)N2` [SU9516] are 8.231, 12.12 and 10.18.
In the same order, the values of `CCN(CC)CCNC(=O)c1c(C)[nH]c(/C=C2\C(=O)Nc3ccc(Cl)cc32)c1C` [SU11652] are 8.033, −6.691 and 0.671.
Turning to `Oc1ccc(Nc2nc(-c3ccc(Cl)cc3)cs2)cc1` [Sphingosine Kinase Inhibitor], the Zscore_1 under setting [1] is listed as −3.806. In addition, the Zscore_2 under setting [2] is reported as −4.154. The Zscore_AVG under setting [3] is recorded as −3.98.
In turn, `COc1cc2ncnc(Nc3ccc(Oc4ccccc4)cc3)c2cc1OC` [Src Kinase Inhibitor I] displayed a Zscore_1 under setting [1] of 4.691. Under setting [2], this molecule came in with a Zscore_2 of 1.808. The Zscore_AVG under setting [3] was 3.249.
On to `CN[C@@H]1C[C@H]2O[C@@](C)([C@@H]1OC)n1c3ccccc3c3c4c(c5c6ccccc6n2c5c31)C(=O)NC4` [Staurosporine, Streptomyces sp.], for which the Zscore_1 under setting [1] is −6.893 and −7.431. Moreover, the Zscore_2 under setting [2] was −9.439 and −9.651. In addition, the Zscore_AVG under setting [3] was −8.166 and −8.541.
`CC(C)(C)c1ccc(S(=O)(=O)Nc2ccc(-n3ccnc3)cc2)cc1` [Stem-Cell Factor/c-Kit Inhibitor, ISCK03]: the Zscore_1 under setting [1] is −0.9751. Further, under setting [2], the Zscore_2 is reported as −0.07435. Further, the Zscore_AVG under setting [3] is given as −0.5247.
For `O=[N+]([O-])/C=C/c1ccc2c(c1)OCO2` [Syk Inhibitor III], in that order: −0.8894, 0.1912 and −0.3491.
As to `NCCNc1ncc(C(N)=O)c(Nc2cccc(C(F)(F)F)c2)n1` [Syk Inhibitor II], the Zscore_1 under setting [1] is −0.7866. Moreover, under setting [2], the Zscore_2 is on record as −0.6851. The Zscore_AVG under setting [3] is on record as −0.7358.
Consider `Cc1cccc(-c2[nH]c(C(C)(C)C)nc2-c2ccc3c(c2)OCO3)n1` [TGF-b RI Inhibitor III], for which the Zscore_1 under setting [1] is given as −0.4096. Further, the Zscore_2 under setting [2] is recorded as −0.6585. The Zscore_AVG under setting [3] is −0.5341.
For `c1ccc(-c2[nH]ncc2-c2ccnc3ccccc23)nc1` [TGF-b RI Kinase Inhibitor], in that order: −0.7181, −1.933 and −1.326.
As to `Cc1cc(C=C2C(=O)C=CC2=O)cc(C)c1O` [TX-1918], under setting [1], the Zscore_1 is −0.9736. The Zscore_2 under setting [2] is reported as −2.336. Also, the Zscore_AVG under setting [3] is −1.655.
In the same order, the values of `N#Cc1cnc2cnc(NCc3cccnc3)cc2c1Nc1ccc(F)c(Cl)c1` [Tpl2 Kinase Inhibitor] are −2.9, −5.972 and −4.436.
For `CN[C@@H]1C[C@H]2O[C@@](C)([C@@H]1OC)n1c3ccccc3c3c4c(c5c6ccccc6n2c5c31)C(=O)N[C@@H]4O` [UCN-01], in that order: −7.46, −8.298 and −7.879.
For `Cc1cc(C)c(/C=C2\C(=O)Nc3ccccc32)[nH]1` [VEGF Receptor 2 Kinase Inhibitor III], in that order: −0.2089, −2.04 and −1.124.
As for `O=C1Nc2ccc(Br)cc2/C1=C/c1cc2c([nH]1)CCCC2` [VEGF Receptor 2 Kinase Inhibitor II], the Zscore_1 under setting [1] turned out to be 0.1217. For the same molecule, the Zscore_2 under setting [2] is −0.1806. Besides, under setting [3], the Zscore_AVG is −0.02944.
Turning to `COc1ccc(-c2cnc3c(-c4ccsc4)cnn3c2)cc1` [VEGF Receptor 2 Kinase Inhibitor IV], the Zscore_1 under setting [1] is reported as −1.795. Further, under setting [2], the Zscore_2 is given as 1.512. Moreover, the Zscore_AVG under setting [3] was −0.1417.
In the case of `CCOC(=O)c1c(C)[nH]c(/C=C2\C(=O)Nc3ccccc32)c1C` [VEGF Receptor 2 Kinase Inhibitor I], under setting [1], the Zscore_1 is −0.8038. For the same molecule, the Zscore_2 under setting [2] is recorded as −1.721. The Zscore_AVG under setting [3] is recorded as −1.262.
